Experimental data published in the OPERA property sets (Mansouri et al. 2018).

logP | Compound
3.06 | CCC(CC)C(=O)Nc1cc(C(F)(F)F)ccc1S(N)(=O)=O
2.13 | CCC(CC)C(=O)Nc1cc(C)ccc1S(N)(=O)=O
1.37 | COc1ccc(S(N)(=O)=O)c(NC(=O)C(C)C)c1
1.72 | CC(C)C(=O)NS(=O)(=O)c1ccccc1[N+](=O)[O-]
0.97 | CC(C)C(=O)Nc1ccccc1S(N)(=O)=O
1.65 | Cc1ccc(S(=O)(=O)NC(=O)C(C)C)c(N)c1
1.17 | CC(C)C(=O)NS(=O)(=O)c1ccccc1N
1.64 | CCC(CC)C(=O)NS(=O)(=O)c1ccccc1N
2.17 | Cc1ccc(S(=O)(=O)NC(=O)C(C)C)c([N+](=O)[O-])c1
1.45 | Cc1ccc(S(N)(=O)=O)c(NC(=O)C(C)C)c1
2.03 | CCC(CC)C(=O)NS(=O)(=O)c1ccc(OC)cc1N
1.87 | CC(C)C(=O)Nc1cc(Cl)ccc1S(N)(=O)=O
2.01 | CCC(CC)C(=O)Nc1cc(OC)ccc1S(N)(=O)=O
3.57 | CCC(CC)C(=O)NS(=O)(=O)c1cc([N+](=O)[O-])cc(C(F)(F)F)c1
1.58 | COc1ccc(S(=O)(=O)NC(=O)C(C)C)c(N)c1
2.67 | CCC(CC)C(=O)NS(=O)(=O)c1ccc(C)cc1[N+](=O)[O-]
1.62 | CCC(CC)C(=O)Nc1ccccc1S(N)(=O)=O
2.17 | CCC(CC)C(=O)NS(=O)(=O)c1ccccc1[N+](=O)[O-]
